Earlier results, collected in PMC4274137 (HIV/AIDS (Auckland, N.Z.), 2014).
Read-outs that look alike come from different tables or passages of the source. Each block holds one molecule with its values, some of them ahead of it.

How the values were obtained:
[1] = tested on: HIV dyslipidemia
[2] = tested on: HIV patients
[3] = tested on: HIV patients; conditions: DAD study
[4] = tested on: HIV patients; remark: listed apart in the source
[5] = tested on: HIV patients; conditions: HIV patients in France
[6] = tested on: Asian patients with HIV
[7] = tested on: HIV patients; conditions: Danish study
[8] = HIV dyslipidemia, ezetimibe monotherapy or combined with statin

SMILES: O=C1[C@H](CC[C@H](O)c2ccc(F)cc2)[C@@H](c2ccc(O)cc2)N1c1ccc(F)cc1 [Ezetimibe]
lipid-lowering efficacy [1, 8]: effective | safety [2, 8]: safe

SMILES: CC(C)OC(=O)C(C)(C)Oc1ccc(C(=O)c2ccc(Cl)cc2)cc1 [Fenofibrate]
efficacy in mixed dyslipidemia and hypertriglyceridemia ([1]; people with HIV infection): useful | safety ([2]; people with HIV infection): generally safe

SMILES: O=C(O)c1cccnc1 [Niacin]
efficacy in improving lipid profile ([1]; HIV patients, two studies): effective | safety ([2]; HIV patients, two studies): safe

SMILES: Nc1nc(NC2CC2)c2ncn([C@H]3C=C[C@@H](CO)C3)c2n1 [abacavir]
risk of myocardial infarction [3]: associated with independent risk of myocardial infarction

SMILES: O=C1Nc2ccc(Cl)cc2[C@@](C#CC2CC2)(C(F)(F)F)O1 [efavirenz]
total cholesterol and triglycerides ([4]; HIV patients on NNRTIs): associated with increase in total cholesterol and triglycerides

risk factor for hypothyroidism [5]: risk factors | association of treatment with NAFLD [6]: not with HIV-related factors
SMILES: Cc1cn([C@H]2C=C[C@@H](CO)O2)c(=O)[nH]c1=O [stavudine]

high triglycerides and lipoatrophy (NRTI effect) ([4]; compared with other NRTIs): this effect is less seen
SMILES: C[C@H](Cn1cnc2c(N)ncnc21)OCP(=O)(O)O [tenofovir]
estimated glomerular filtration rate (eGFR) [7]: reduced estimated glomerular filtration rate

association of treatment with NAFLD [6]: not with HIV-related factors
SMILES: Nc1ccn([C@H]2CC[C@@H](CO)O2)c(=O)n1 [zalcitabine]
